Experimental data: the kinase profiling compilation of Christmann-Franck et al. (2016)

Experiments:
Assay in all cases: Caliper, Mobility shift assay off-chip
[1] = tested on: ABL1 (human), P00519 [T315I]
CDK1 CCNB1 (human) = CDK1 CCNB1 (human) (UniProt P06493+P14635)
CSNK2A2 (human) = CSNK2A2 (human) (UniProt P19784)
DAPK1 (human) = DAPK1 (human) (UniProt P53355)
DAPK2 (human) = DAPK2 (human) (UniProt Q9UIK4)
DCLK2 (human) = DCLK2 (human) (UniProt Q8N568)
DMPK (human) = DMPK (human) (UniProt Q09013)
EEF2K (human) = EEF2K (human) (UniProt O00418)
[2] = tested on: EGFR (human), P00533 [T790M]
EPHA1 (human) = EPHA1 (human) (UniProt P21709)
EPHA3 (human) = EPHA3 (human) (UniProt P29320)
FES (human) = FES (human) (UniProt P07332)
FGFR4 (human) = FGFR4 (human) (UniProt P22455)
FLT4 (human) = FLT4 (human) (UniProt P35916)
GRK5 (human) = GRK5 (human) (UniProt P34947)
GSK3A (human) = GSK3A (human) (UniProt P49840)
GSK3B (human) = GSK3B (human) (UniProt P49841)
IRAK1 (human) = IRAK1 (human) (UniProt P51617)
[3] = tested on: KIT (human), P10721 [D816H]
MAP2K6 (human) = MAP2K6 (human) (UniProt P52564)
MAP3K5 (human) = MAP3K5 (human) (UniProt Q99683)
MAPK10 (human) = MAPK10 (human) (UniProt P53779)
MAPK9 (human) = MAPK9 (human) (UniProt P45984)
MERTK (human) = MERTK (human) (UniProt Q12866)
MET (human) = MET (human) (UniProt P08581)
MYLK3 (human) = MYLK3 (human) (UniProt Q32MK0)
PAK2 (human) = PAK2 (human) (UniProt Q13177)
PAK7 (human) = PAK7 (human) (UniProt Q9P286)
PASK (human) = PASK (human) (UniProt Q96RG2)
[4] = tested on: PDGFRA (human), P16234 [D842V]
PIM3 (human) = PIM3 (human) (UniProt Q86V86)
PKN2 (human) = PKN2 (human) (UniProt Q16513)
PRKCE (human) = PRKCE (human) (UniProt Q02156)
PRKG1 (human) = PRKG1 (human) (UniProt Q13976)
PTK2B (human) = PTK2B (human) (UniProt Q14289)
RET (human) = RET (human) (UniProt P07949)
RPS6KA2 KD1 KD2 (human) = RPS6KA2 KD1 KD2 (human) (UniProt Q15349)
SYK (human) = SYK (human) (UniProt P43405)
TBK1 (human) = TBK1 (human) (UniProt Q9UHD2)
TNK2 (human) = TNK2 (human) (UniProt Q07912)
WNK2 (human) = WNK2 (human) (UniProt Q9Y3S1)

Chain of MAPK10 (human) (P53779 whole entry, looked up): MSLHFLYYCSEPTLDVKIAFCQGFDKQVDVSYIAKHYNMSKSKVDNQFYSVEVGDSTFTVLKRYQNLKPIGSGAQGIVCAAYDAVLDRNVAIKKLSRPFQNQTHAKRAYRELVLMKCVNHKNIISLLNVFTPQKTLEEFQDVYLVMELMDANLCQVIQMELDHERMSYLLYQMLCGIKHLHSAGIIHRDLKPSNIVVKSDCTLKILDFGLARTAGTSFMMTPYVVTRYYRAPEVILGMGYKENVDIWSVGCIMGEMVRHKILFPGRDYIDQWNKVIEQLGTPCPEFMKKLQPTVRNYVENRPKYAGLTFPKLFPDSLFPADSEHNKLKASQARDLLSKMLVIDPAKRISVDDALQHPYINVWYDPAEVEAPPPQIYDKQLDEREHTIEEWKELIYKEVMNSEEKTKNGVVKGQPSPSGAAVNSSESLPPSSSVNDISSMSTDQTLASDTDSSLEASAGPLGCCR
Chain of RPS6KA2 KD1 KD2 (human) (Q15349 whole entry, looked up): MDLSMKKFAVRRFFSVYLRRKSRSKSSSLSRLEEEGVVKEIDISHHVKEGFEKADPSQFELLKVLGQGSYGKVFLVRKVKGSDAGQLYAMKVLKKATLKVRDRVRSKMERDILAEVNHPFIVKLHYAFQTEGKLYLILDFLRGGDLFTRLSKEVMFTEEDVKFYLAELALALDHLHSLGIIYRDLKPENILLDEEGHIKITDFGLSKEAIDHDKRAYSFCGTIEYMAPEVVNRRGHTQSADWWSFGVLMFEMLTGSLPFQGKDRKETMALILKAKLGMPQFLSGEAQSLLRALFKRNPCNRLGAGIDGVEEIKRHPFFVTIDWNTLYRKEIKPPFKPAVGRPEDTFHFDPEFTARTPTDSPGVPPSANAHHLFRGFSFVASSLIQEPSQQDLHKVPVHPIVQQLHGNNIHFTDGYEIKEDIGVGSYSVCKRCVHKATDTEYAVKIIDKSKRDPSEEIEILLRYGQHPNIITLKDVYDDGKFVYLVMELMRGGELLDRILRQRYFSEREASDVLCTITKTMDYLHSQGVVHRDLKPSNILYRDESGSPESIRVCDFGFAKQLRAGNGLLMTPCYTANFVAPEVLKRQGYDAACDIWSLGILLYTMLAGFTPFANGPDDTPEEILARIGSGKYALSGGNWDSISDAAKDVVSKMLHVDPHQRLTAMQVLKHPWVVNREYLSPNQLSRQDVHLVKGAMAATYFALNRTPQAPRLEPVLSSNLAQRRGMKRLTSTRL
Chain of DCLK2 (human) (Q8N568 whole entry, looked up): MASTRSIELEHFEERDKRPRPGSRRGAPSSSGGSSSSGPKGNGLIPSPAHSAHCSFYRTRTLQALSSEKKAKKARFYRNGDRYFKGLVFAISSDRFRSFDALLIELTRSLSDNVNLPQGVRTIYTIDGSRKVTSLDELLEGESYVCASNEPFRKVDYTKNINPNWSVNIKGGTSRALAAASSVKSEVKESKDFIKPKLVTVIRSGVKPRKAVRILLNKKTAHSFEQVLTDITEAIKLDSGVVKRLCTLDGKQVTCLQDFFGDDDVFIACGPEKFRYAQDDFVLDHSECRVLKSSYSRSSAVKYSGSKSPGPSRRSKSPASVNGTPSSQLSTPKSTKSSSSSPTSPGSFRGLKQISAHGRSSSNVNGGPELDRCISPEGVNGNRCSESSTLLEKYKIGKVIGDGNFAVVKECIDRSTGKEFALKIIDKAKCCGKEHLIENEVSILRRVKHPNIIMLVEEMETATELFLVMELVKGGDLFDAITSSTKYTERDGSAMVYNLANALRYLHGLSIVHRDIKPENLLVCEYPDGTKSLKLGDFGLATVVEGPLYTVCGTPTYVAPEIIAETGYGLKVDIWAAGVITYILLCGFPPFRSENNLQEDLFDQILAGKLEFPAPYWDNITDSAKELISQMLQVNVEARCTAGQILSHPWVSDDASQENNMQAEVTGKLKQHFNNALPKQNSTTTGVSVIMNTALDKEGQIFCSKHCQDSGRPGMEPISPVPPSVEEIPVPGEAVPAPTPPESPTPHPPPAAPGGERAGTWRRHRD
Chain of PRKCE (human) (Q02156 whole entry, looked up): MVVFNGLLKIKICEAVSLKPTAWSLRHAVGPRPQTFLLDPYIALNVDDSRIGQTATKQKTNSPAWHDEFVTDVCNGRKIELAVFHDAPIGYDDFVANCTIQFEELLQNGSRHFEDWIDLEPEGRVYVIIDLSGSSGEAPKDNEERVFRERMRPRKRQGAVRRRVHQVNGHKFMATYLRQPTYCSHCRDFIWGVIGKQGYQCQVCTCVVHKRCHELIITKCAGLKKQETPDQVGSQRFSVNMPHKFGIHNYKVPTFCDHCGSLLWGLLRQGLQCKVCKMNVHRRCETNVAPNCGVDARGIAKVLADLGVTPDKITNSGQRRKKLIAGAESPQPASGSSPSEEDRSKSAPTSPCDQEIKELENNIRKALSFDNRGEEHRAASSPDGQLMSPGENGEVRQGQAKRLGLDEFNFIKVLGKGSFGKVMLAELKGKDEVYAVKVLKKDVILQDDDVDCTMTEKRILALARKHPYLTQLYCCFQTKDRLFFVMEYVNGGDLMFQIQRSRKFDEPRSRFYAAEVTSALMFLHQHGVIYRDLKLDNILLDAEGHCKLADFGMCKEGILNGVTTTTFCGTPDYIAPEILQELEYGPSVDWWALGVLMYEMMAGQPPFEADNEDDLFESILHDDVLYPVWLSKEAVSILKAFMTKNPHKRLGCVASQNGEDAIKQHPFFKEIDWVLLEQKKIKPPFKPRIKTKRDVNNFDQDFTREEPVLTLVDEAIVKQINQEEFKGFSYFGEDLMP
Chain of RET (human) (P07949 whole entry, looked up): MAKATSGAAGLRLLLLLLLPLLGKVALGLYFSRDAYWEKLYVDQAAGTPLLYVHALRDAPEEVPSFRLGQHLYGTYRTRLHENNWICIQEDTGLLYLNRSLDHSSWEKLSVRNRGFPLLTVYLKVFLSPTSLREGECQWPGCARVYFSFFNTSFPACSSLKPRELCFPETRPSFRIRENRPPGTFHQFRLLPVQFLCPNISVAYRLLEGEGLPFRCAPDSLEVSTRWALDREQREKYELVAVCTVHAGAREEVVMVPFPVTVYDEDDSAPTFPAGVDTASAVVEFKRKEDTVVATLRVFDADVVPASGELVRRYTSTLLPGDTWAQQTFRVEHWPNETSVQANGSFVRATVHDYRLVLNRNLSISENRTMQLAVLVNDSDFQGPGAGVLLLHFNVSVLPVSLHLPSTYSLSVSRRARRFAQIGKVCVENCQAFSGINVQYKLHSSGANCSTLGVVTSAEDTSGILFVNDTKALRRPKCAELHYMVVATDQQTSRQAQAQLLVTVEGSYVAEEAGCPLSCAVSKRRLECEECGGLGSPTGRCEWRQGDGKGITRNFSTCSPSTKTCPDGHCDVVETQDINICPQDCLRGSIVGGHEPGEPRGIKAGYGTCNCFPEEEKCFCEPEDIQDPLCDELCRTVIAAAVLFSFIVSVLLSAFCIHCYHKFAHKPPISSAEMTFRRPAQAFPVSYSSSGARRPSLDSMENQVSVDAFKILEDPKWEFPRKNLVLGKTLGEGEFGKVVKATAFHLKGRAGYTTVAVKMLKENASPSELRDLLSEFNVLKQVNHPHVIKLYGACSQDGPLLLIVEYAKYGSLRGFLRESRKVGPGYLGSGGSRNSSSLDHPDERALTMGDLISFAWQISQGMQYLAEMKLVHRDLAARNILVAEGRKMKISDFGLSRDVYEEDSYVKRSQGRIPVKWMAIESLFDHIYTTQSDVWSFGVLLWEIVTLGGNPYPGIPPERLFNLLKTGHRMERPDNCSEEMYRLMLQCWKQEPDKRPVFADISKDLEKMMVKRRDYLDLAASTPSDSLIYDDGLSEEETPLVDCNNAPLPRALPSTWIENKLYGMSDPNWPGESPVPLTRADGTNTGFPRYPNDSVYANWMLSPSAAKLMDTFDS
Chain of PAK7 (human) (Q9P286 whole entry, looked up): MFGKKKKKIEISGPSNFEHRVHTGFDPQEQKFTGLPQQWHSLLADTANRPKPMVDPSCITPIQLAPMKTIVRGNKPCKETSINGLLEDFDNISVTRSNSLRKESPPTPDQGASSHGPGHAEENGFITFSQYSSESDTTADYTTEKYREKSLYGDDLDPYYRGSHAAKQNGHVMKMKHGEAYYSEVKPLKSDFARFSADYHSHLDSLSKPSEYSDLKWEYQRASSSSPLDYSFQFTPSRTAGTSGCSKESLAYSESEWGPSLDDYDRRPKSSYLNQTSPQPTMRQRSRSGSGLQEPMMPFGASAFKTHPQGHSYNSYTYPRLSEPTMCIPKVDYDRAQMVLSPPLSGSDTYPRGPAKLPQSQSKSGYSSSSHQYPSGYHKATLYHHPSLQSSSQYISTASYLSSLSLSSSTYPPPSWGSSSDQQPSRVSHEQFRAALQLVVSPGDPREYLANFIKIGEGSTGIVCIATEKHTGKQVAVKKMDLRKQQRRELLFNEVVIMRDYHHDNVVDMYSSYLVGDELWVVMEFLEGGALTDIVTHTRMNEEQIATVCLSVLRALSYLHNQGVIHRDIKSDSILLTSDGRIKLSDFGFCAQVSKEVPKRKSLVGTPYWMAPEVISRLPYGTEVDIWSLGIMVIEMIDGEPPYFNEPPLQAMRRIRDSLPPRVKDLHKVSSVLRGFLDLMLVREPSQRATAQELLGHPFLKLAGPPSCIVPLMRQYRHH
Chain of MAP2K6 (human) (P52564 whole entry, looked up): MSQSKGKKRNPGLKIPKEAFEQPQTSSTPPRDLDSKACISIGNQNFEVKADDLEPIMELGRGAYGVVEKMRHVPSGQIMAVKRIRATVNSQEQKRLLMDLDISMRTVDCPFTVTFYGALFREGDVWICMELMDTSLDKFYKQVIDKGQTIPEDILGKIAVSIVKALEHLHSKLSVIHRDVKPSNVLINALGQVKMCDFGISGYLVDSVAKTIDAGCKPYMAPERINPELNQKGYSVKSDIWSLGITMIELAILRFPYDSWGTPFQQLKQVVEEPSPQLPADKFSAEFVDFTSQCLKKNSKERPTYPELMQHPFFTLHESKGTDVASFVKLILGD

For O=C(N[C@@H](COc1ccc2[nH]c(=O)[nH]c2c1)c1ccccc1)c1cccn(Cc2ccc(F)c(F)c2)c1=O, the residual activity ([1]; compound 10.0 µM) was 91%, the residual activity (CDK1 CCNB1 (human); compound 10.0 µM) was 111% and the residual activity (CSNK2A2 (human); compound 10.0 µM) was 105%. It also gave a residual activity (DAPK1 (human); compound 10.0 µM) of 113%, a residual activity (DAPK2 (human); compound 10.0 µM) of 94% and a residual activity (DCLK2 (human); compound 10.0 µM) of 121%. The residual activity (DMPK (human); compound 10.0 µM) was 105%, the residual activity (EEF2K (human); compound 10.0 µM) was 98% and the residual activity ([2]; compound 10.0 µM) was 107%. For the same compound, the residual activity (EPHA1 (human); compound 10.0 µM) was 107%, the residual activity (EPHA3 (human); compound 10.0 µM) was 118% and the residual activity (FES (human); compound 10.0 µM) was 122%. It also gave a residual activity (FGFR4 (human); compound 10.0 µM) of 108%, a residual activity (FLT4 (human); compound 10.0 µM) of 109% and a residual activity (GRK5 (human); compound 10.0 µM) of 69%. For the same compound, the residual activity (GSK3A (human); compound 10.0 µM) was 102%, the residual activity (GSK3B (human); compound 10.0 µM) was 92% and the residual activity (IRAK1 (human); compound 10.0 µM) was 100%. It also gave a residual activity ([3]; compound 10.0 µM) of 97%, a residual activity (MAP2K6 (human); compound 10.0 µM) of 115% and a residual activity (MAP3K5 (human); compound 10.0 µM) of 99%. It also gave a residual activity (MAPK10 (human); compound 10.0 µM) of 105%, a residual activity (MAPK9 (human); compound 10.0 µM) of 100% and a residual activity (MERTK (human); compound 10.0 µM) of 95%. It also gave a residual activity (MET (human); compound 10.0 µM) of 95%, a residual activity (MYLK3 (human); compound 10.0 µM) of 110% and a residual activity (PAK2 (human); compound 10.0 µM) of 94%. It also gave a residual activity (PAK7 (human); compound 10.0 µM) of 100%, a residual activity (PASK (human); compound 10.0 µM) of 111% and a residual activity ([4]; compound 10.0 µM) of 108%. The residual activity (PIM3 (human); compound 10.0 µM) was 97%, the residual activity (PKN2 (human); compound 10.0 µM) was 96% and the residual activity (PRKCE (human); compound 10.0 µM) was 96%. The residual activity (PRKG1 (human); compound 10.0 µM) was 111%, the residual activity (PTK2B (human); compound 10.0 µM) was 98% and the residual activity (RET (human); compound 10.0 µM) was 100%. For the same compound, the residual activity (RPS6KA2 KD1 KD2 (human); compound 10.0 µM) was 102%, the residual activity (SYK (human); compound 10.0 µM) was 102% and the residual activity (TBK1 (human); compound 10.0 µM) was 93%. For the same compound, the residual activity (TNK2 (human); compound 10.0 µM) was 101% and the residual activity (WNK2 (human); compound 10.0 µM) was 104%.
C[C@@H](Nc1nc2c(C#CC3CC3)c[nH]c(=O)c2c2cc(-c3cn[nH]c3)ccc12)C(C)(C)C showed a residual activity ([1]; compound 1.0 µM) of 88%, a residual activity (CDK1 CCNB1 (human); compound 1.0 µM) of 100% and a residual activity (CSNK2A2 (human); compound 1.0 µM) of 112%. The residual activity (DAPK1 (human); compound 1.0 µM) was 82%, the residual activity (DAPK2 (human); compound 1.0 µM) was 36% and the residual activity (DCLK2 (human); compound 1.0 µM) was 112%. For the same compound, the residual activity (DMPK (human); compound 1.0 µM) was 100%, the residual activity (EEF2K (human); compound 1.0 µM) was 115% and the residual activity ([2]; compound 1.0 µM) was 36%. It also gave a residual activity (EPHA1 (human); compound 1.0 µM) of 99%, a residual activity (EPHA3 (human); compound 1.0 µM) of 111% and a residual activity (FES (human); compound 1.0 µM) of 92%. It also gave a residual activity (FGFR4 (human); compound 1.0 µM) of 105%, a residual activity (FLT4 (human); compound 1.0 µM) of 2% and a residual activity (GRK5 (human); compound 1.0 µM) of 122%. The residual activity (GSK3A (human); compound 1.0 µM) was 107%, the residual activity (GSK3B (human); compound 1.0 µM) was 82% and the residual activity (IRAK1 (human); compound 1.0 µM) was 102%. It also gave a residual activity ([3]; compound 1.0 µM) of 9%, a residual activity (MAP2K6 (human); compound 1.0 µM) of 106% and a residual activity (MAP3K5 (human); compound 1.0 µM) of 104%. For the same compound, the residual activity (MAPK10 (human); compound 1.0 µM) was 71%, the residual activity (MAPK9 (human); compound 1.0 µM) was 116% and the residual activity (MERTK (human); compound 1.0 µM) was 8%. It also gave a residual activity (MET (human); compound 1.0 µM) of 96%, a residual activity (MYLK3 (human); compound 1.0 µM) of 53% and a residual activity (PAK2 (human); compound 1.0 µM) of 99%. It also gave a residual activity (PAK7 (human); compound 1.0 µM) of 103%, a residual activity (PASK (human); compound 1.0 µM) of 109% and a residual activity ([4]; compound 1.0 µM) of 1%. For the same compound, the residual activity (PIM3 (human); compound 1.0 µM) was 96%, the residual activity (PKN2 (human); compound 1.0 µM) was 10% and the residual activity (PRKCE (human); compound 1.0 µM) was 106%. The residual activity (PRKG1 (human); compound 1.0 µM) was 97%, the residual activity (PTK2B (human); compound 1.0 µM) was 59% and the residual activity (RET (human); compound 1.0 µM) was 1%. It also gave a residual activity (RPS6KA2 KD1 KD2 (human); compound 1.0 µM) of 7%, a residual activity (SYK (human); compound 1.0 µM) of 105% and a residual activity (TBK1 (human); compound 1.0 µM) of 78%. It also gave a residual activity (TNK2 (human); compound 1.0 µM) of 32% and a residual activity (WNK2 (human); compound 1.0 µM) of 98%.
